Drawing on US10988477B2 (Merck Patent GmbH, priority 2018, dated 2021), this text covers Ki and IC50 for 30 compounds.

One assay concerns the target GCN2 kinase (Homo sapiens, UniProt Q9P2K8). The assay can be described thus: GCN2 enzyme inhibition assay (Transcreener ADP2 fluorescence polarization). The format is biochemical. To be noted: Enzyme activity for compounds of Formula IV; Ki(app), 280 μM ATP, 25° C. In short, it runs like this: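 Run at 25 °C in 25 mM Tris-HCl pH 7.5, 50 mM NaCl, 10 mM MgCl2, 1 mM DTT with 4 nM GCN2, 280 μM ATP and 200 μM (RS)7 peptide; compound (0–8 μM final) preincubated 10 min, reaction 1 h. ADP read by antibody/tracer FP; IC50 and Ki(app) from tight-binding fit.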

In assay [1] the target is intracellular GCN2 (phosphorylation of the GCN2 substrate eIF2α) (Homo sapiens, UniProt Q9P2K8). The experiment in a line: GCN2 cellular inhibition assay (AlphaScreen SureFire P-eIF2α Ser51, borrelidin-treated U2OS cells). The format is cell-based. The note with it: compounds of Formula IV; biomarker assay, phosphorylated eIF2α Ser51 in borrelidin-treated U2OS cells. In short, it runs like this:
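First, U2OS cells are plated and left overnight at 37 °C. Next, compounds (from 40 μM final, 4-fold steps) and 10 μM borrelidin are added for 1 h, cells lysed, and phospho-Ser51 eIF2α detected by AlphaScreen bead sandwich. Inhibition is computed versus borrelidin-only wells.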
Background: Bead proximity is the source of the signal in Alpha formats.

GCN2 kinase, sequence (Q9P2K8 whole entry): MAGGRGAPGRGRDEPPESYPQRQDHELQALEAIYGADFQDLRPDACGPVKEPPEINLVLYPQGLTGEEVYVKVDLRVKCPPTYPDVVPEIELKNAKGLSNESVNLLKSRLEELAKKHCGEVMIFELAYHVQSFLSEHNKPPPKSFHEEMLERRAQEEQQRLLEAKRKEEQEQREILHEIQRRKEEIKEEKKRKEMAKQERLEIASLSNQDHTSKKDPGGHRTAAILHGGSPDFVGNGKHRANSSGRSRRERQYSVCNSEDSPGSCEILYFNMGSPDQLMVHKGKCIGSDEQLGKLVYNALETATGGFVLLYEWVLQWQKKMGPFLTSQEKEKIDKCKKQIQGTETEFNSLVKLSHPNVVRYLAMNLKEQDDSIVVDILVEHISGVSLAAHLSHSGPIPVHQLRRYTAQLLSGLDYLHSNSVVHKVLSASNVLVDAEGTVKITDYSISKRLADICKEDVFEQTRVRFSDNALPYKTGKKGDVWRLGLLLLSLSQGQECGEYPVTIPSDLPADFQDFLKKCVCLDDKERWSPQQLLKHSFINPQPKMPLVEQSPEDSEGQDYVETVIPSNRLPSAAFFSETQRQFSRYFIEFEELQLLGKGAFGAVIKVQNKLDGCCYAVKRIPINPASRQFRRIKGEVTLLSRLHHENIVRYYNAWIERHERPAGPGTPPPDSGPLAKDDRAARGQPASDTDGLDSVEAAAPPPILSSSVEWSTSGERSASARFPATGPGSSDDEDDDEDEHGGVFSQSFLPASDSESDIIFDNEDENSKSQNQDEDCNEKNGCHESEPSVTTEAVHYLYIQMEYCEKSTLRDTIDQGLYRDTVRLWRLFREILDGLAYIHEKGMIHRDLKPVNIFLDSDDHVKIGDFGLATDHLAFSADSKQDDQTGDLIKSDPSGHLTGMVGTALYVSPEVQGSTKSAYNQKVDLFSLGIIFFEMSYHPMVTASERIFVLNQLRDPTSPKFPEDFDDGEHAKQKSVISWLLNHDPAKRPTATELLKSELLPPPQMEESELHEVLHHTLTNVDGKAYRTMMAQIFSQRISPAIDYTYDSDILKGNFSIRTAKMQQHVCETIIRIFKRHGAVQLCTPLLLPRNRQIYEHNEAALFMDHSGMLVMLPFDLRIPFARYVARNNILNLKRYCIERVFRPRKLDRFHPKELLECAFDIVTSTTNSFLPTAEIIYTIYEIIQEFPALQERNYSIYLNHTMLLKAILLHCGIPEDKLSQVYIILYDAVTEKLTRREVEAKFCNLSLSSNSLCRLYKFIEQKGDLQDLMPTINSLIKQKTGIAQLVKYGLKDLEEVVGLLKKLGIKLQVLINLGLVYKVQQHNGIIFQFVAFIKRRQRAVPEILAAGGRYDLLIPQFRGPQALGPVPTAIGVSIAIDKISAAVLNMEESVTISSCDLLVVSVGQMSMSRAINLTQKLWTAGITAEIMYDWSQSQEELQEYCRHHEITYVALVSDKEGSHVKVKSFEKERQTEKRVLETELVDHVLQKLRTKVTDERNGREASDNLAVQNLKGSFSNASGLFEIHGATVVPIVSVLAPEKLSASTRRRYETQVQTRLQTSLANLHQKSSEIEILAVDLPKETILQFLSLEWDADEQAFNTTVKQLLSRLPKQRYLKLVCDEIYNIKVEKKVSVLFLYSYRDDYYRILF
intracellular GCN2 (phosphorylation of the GCN2 substrate eIF2α), sequence (Q9P2K8 whole entry): as above

`N#Cc1cn2c(-c3cccc(-c4cccc5[nH]ccc45)n3)cnc2cn1` [IV-234, 3-(6-(1H-Indol-4-yl)pyridin-2-yl)imidazo[1,2-a]pyrazine-6-carbonitrile] had a Ki at GCN2 kinase of 0.01 to 0.1 µM. Moreover, the IC50 in assay [1] was > 5 µM.
For the compound `CC1CN(c2ccnc(-c3cnc4cnc(Br)cn34)n2)C(C)C(c2cn[nH]c2)N1` (stereo not drawn) [IV-279, 6-Bromo-3-(4-(2,5-dimethyl-3-(1H-pyrazol-4-yl)piperazin-1-yl)pyrimidin-2-yl)imidazo[1,2-a]pyrazine], the Ki at GCN2 kinase is < 0.01 µM. Besides, the IC50 in assay [1] is < 0.5 µM.
As for `CC1CN(c2ccnc(-c3cnc4cnc(C#N)cn34)n2)C(C)C(c2cn[nH]c2)N1` (stereo not drawn) [IV-305, 3-(4-(2,5-Dimethyl-3-(1H-pyrazol-4-yl)piperazin-1-yl)pyrimidin-2-yl)imidazo[1,2-a]pyrazine-6-carbonitrile], the Ki on GCN2 kinase is < 0.01 µM. Further, the IC50 in assay [1] lay within 0.5 to 5 µM.
For `CC1NC(c2cn[nH]c2)C(C)N(c2ccnc(-c3cnc4cnc(C(F)(F)F)cn34)n2)C1C` (stereo not drawn) [IV-323, 6-(Trifluoromethyl)-3-(4-(2,3,6-trimethyl-5-(1H-pyrazol-4-yl)piperazin-1-yl)pyrimidin-2-yl)imidazo[1,2-a]pyrazine], on GCN2 kinase, the Ki was < 0.01 µM. The compound also displayed an IC50 in assay [1] of 0.5 to 5 µM.
For `Brc1cn2c(-c3nccc(N4CCCC(c5c[nH]cn5)C4)n3)cnc2cn1` (stereo not drawn) [IV-340, 3-(4-(3-(1H-Imidazol-4-yl)piperidin-1-yl)pyrimidin-2-yl)-6-bromoimidazo[1,2-a]pyrazine], in that order: < 0.01 µM and 0.5 to 5 µM.
For `N#Cc1cn2c(-c3nccc(N4CCCC(c5c[nH]cn5)C4)n3)cnc2cn1` (stereo not drawn) [IV-341, 3-(4-(3-(1H-Imidazol-4-yl)piperidin-1-yl)pyrimidin-2-yl)imidazo[1,2-a]pyrazine-6-carbonitrile], in that order: 0.01 to 0.1 µM and > 5 µM.
With `Brc1cn2c(-c3nccc(N4CCCC(c5cn[nH]c5)C4)n3)cnc2cn1` (stereo not drawn) [IV-346, 3-(4-(3-(1H-Pyrazol-4-yl)piperidin-1-yl)pyrimidin-2-yl)-6-bromoimidazo[1,2-a]pyrazine], at GCN2 kinase, the Ki was < 0.01 µM. Besides, in assay [1], the IC50 is < 0.5 µM.
`Clc1cn2c(-c3nccc(N4CCNC(c5c[nH]cn5)C4)n3)cnc2cn1` (stereo not drawn) [IV-347, 3-(4-(3-(1H-Imidazol-4-yl)piperazin-1-yl)pyrimidin-2-yl)-6-chloroimidazo[1,2-a]pyrazine] displayed a Ki at GCN2 kinase of 0.1 to 1 µM. In addition, the IC50 in assay [1] was > 5 µM.
`CC1CN(c2ccnc(-c3cnc4cnc(Cl)cn34)n2)C(C)C(c2c[nH]cn2)N1` (stereo not drawn) [IV-349, 3-(4-(3-(1H-Imidazol-4-yl)-2,5-dimethylpiperazin-1-yl)pyrimidin-2-yl)-6-chloroimidazo[1,2-a]pyrazine]: the Ki on GCN2 kinase was in the range of 0.01 to 0.1 µM. Also, in assay [1], the IC50 lay within 0.5 to 5 µM.
Consider `CC1(C)CN(c2ccnc(-c3cnc4cnc(Cl)cn34)n2)CC(c2cn[nH]c2)N1` (stereo not drawn) [IV-353, 6-Chloro-3-(4-(3,3-dimethyl-5-(1H-pyrazol-4-yl)piperazin-1-yl)pyrimidin-2-yl)imidazo[1,2-a]pyrazine], for which the Ki at GCN2 kinase lay within 0.1 to 1 µM. The compound further had an IC50 in assay [1] of 0.5 to 5 µM.
For `CC1(C)CN(c2ccnc(-c3cnc4cnc(Br)cn34)n2)CC(c2cn[nH]c2)N1` (stereo not drawn) [IV-354, 6-Bromo-3-(4-(3,3-dimethyl-5-(1H-pyrazol-4-yl)piperazin-1-yl)pyrimidin-2-yl)imidazo[1,2-a]pyrazine] the same measures were 0.01 to 0.1 µM and > 5 µM.
Regarding `Cc1nc(C2CCCN(c3ccnc(-c4cnc5cnc(Br)cn45)n3)C2)c[nH]1` (stereo not drawn) [IV-355, 6-Bromo-3-(4-(3-(2-methyl-1H-imidazol-4-yl)piperidin-1-yl)pyrimidin-2-yl)imidazo[1,2-a]pyrazine], the Ki on GCN2 kinase was < 0.01 µM. For the same compound, the IC50 in assay [1] was in the range of 0.5 to 5 µM.
As to `OCC1CC(c2cn[nH]c2)CN(c2ccnc(-c3cnc4cnc(C(F)(F)F)cn34)n2)C1` (stereo not drawn) [IV-359, (5-(1H-Pyrazol-4-yl)-1-(2-(6-(trifluoromethyl)imidazo[1,2-a]pyrazin-3-yl)pyrimidin-4-yl)piperidin-3-yl)methanol], the Ki on GCN2 kinase is < 0.01 µM. In assay [1], the IC50 is < 0.5 µM.
Take `Brc1cn2c(-c3nccc(N4CCCC(c5c[nH]cn5)C4)n3)cnc2cn1` (stereo not drawn) [IV-363, 3-(4-(3-(1H-Imidazol-4-yl)piperidin-1-yl)pyrimidin-2-yl)-6-bromoimidazo[1,2-a]pyrazine]: at GCN2 kinase, the Ki is < 0.01 µM. For the same compound, the IC50 in assay [1] was < 0.5 µM.
For the compound `Brc1cn2c(-c3nccc(N4CCNC(c5cn[nH]c5)C4)n3)cnc2cn1` (stereo not drawn) [IV-371, 3-(4-(3-(1H-Pyrazol-4-yl)piperazin-1-yl)pyrimidin-2-yl)-6-bromoimidazo[1,2-a]pyrazine], the Ki on GCN2 kinase was in the range of 0.01 to 0.1 µM. This compound also showed an IC50 in assay [1] of 0.5 to 5 µM.
Turning to `CC1CN(c2ccnc(-c3cnc4cnc(Br)cn34)n2)C(C)C(c2c[nH]cn2)N1` (stereo not drawn) [IV-373, 3-(4-(3-(1H-Imidazol-4-yl)-2,5-dimethylpiperazin-1-yl)pyrimidin-2-yl)-6-bromoimidazo[1,2-a]pyrazine], the Ki on GCN2 kinase is < 0.01 µM. Also, in assay [1], the IC50 was 0.5 to 5 µM.
For `FC(F)(F)c1cn2c(-c3nccc(N4CCCC(c5cn[nH]n5)C4)n3)cnc2cn1` (stereo not drawn) [IV-378, 3-(4-(3-(2H-1,2,3-Triazol-4-yl)piperidin-1-yl)pyrimidin-2-yl)-6-(trifluoromethyl)imidazo[1,2-a]pyrazine] the same measures were < 0.01 µM and < 0.5 µM.
On GCN2 kinase, `CC(C)c1nc(C2CCCN(c3ccnc(-c4cnc5cnc(Br)cn45)n3)C2)c[nH]1` (stereo not drawn) [IV-384, 6-Bromo-3-(4-(3-(2-isopropyl-1H-imidazol-4-yl)piperidin-1-yl)pyrimidin-2-yl)imidazo[1,2-a]pyrazine] registered a Ki of 0.01 to 0.1 µM. The IC50 in assay [1] was 0.5 to 5 µM.
For `CC(C)c1nc(C2=CCCN(c3ccnc(-c4cnc5cnc(Br)cn45)n3)C2)c[nH]1` [IV-385, 6-Bromo-3-(4-(5-(2-isopropyl-1H-imidazol-4-yl)-3,6-dihydropyridin-1(2H)-yl)pyrimidin-2-yl)imidazo[1,2-a]pyrazine], in that order: 0.01 to 0.1 µM and 0.5 to 5 µM.
`OC1(c2cn[nH]c2)CCCN(c2ccnc(-c3cnc4cnc(C(F)(F)F)cn34)n2)C1` (stereo not drawn) [IV-386, 3-(1H-Pyrazol-4-yl)-1-(2-(6-(trifluoromethyl)imidazo[1,2-a]pyrazin-3-yl)pyrimidin-4-yl)piperidin-3-ol] returned a Ki on GCN2 kinase of 0.01 to 0.1 µM. Besides, in assay [1], the IC50 is 0.5 to 5 µM.
For `CC1C(c2cn[nH]c2)CCCN1c1ccnc(-c2cnc3cnc(C(F)(F)F)cn23)n1` (stereo not drawn) [IV-388, 3-(4-(2-Methyl-3-(1H-pyrazol-4-yl)piperidin-1-yl)pyrimidin-2-yl)-6-(trifluoromethyl)imidazo[1,2-a]pyrazine], in that order: < 0.01 µM and < 0.5 µM.
For `CC1C(c2c[nH]cn2)CCCN1c1ccnc(-c2cnc3cnc(C(F)(F)F)cn23)n1` (stereo not drawn) [IV-389, 3-(4-(3-(1H-Imidazol-4-yl)-2-methylpiperidin-1-yl)pyrimidin-2-yl)-6-(trifluoromethyl)imidazo[1,2-a]pyrazine] the same measures were < 0.01 µM and 0.5 to 5 µM.
For `COC1CC(c2cn[nH]c2)CN(c2ccnc(-c3cnc4cnc(C(F)(F)F)cn34)n2)C1` (stereo not drawn) [IV-396, 3-(4-(3-Methoxy-5-(1H-pyrazol-4-yl)piperidin-1-yl)pyrimidin-2-yl)-6-(trifluoromethyl)imidazo[1,2-a]pyrazine], the Ki on GCN2 kinase was < 0.01 µM. The compound also registered an IC50 in assay [1] of 0.5 to 5 µM.
`CC1C(c2cn[nH]c2)NCCN1c1ccnc(-c2cnc3cnccn23)n1` (stereo not drawn) [IV-397, 3-(4-(2-Methyl-3-(1H-pyrazol-4-yl)piperazin-1-yl)pyrimidin-2-yl)imidazo[1,2-a]pyrazine]: on GCN2 kinase, the Ki lay within 0.1 to 1 µM. The IC50 in assay [1] is > 5 µM.
For `Cc1cn2c(-c3nccc(N4CCNC(c5cn[nH]c5)C4C)n3)cnc2cn1` (stereo not drawn) [IV-398, 6-Methyl-3-(4-(2-methyl-3-(1H-pyrazol-4-yl)piperazin-1-yl)pyrimidin-2-yl)imidazo[1,2-a]pyrazine], in that order: 0.01 to 0.1 µM and > 5 µM.
For `FC(F)(F)c1cn2c(-c3nccc(N4CCCC(c5c[nH]c(Cl)n5)C4)n3)cnc2cn1` (stereo not drawn) [IV-409, 3-(4-(3-(2-Chloro-1H-imidazol-4-yl)piperidin-1-yl)pyrimidin-2-yl)-6-(trifluoromethyl)imidazo[1,2-a]pyrazine] the same measures were < 0.01 µM and 0.5 to 5 µM.
Consider `O=C1CN(c2ccnc(-c3cnc4cnc(C(F)(F)F)cn34)n2)CC(c2cn[nH]c2)N1` (stereo not drawn) [IV-410, 6-(1H-Pyrazol-4-yl)-4-(2-(6-(trifluoromethyl)imidazo[1,2-a]pyrazin-3-yl)pyrimidin-4-yl)piperazin-2-one], for which the Ki on GCN2 kinase was in the range of 0.01 to 0.1 µM. The IC50 in assay [1] was > 5 µM.
Take `CC1CN(c2ccnc(-c3cnc4cnc(C(F)(F)F)cn34)n2)C(C)C(c2cn[nH]c2)O1` (stereo not drawn) [IV-415, 3,6-Dimethyl-2-(1H-pyrazol-4-yl)-4-(2-(6-(trifluoromethyl)imidazo[1,2-a]pyrazin-3-yl)pyrimidin-4-yl)morpholine]: on GCN2 kinase, the Ki was < 0.01 µM. Further, the IC50 in assay [1] is < 0.5 µM.
Consider `CC1CN(c2ccnc(-c3cnc4cnc(C(F)(F)F)cn34)n2)C(C)C(c2cn[nH]c2)O1` (stereo not drawn) [IV-416, 3,6-Dimethyl-2-(1H-pyrazol-4-yl)-4-(2-(6-(trifluoromethyl)imidazo[1,2-a]pyrazin-3-yl)pyrimidin-4-yl)morpholine], for which the Ki at GCN2 kinase is < 0.01 µM. The same compound registered an IC50 in assay [1] of 0.5 to 5 µM.
At GCN2 kinase, `CC1C(c2cn[nH]c2)OCCN1c1nccc(-c2cnc3cnc(C(F)(F)F)cn23)n1` (stereo not drawn) [IV-418, 3-Methyl-2-(1H-pyrazol-4-yl)-4-(4-(6-(trifluoromethyl)imidazo[1,2-a]pyrazin-3-yl)pyrimidin-2-yl)morpholine] showed a Ki of 0.01 to 0.1 µM. In assay [1], the IC50 is 0.5 to 5 µM.

Broadly, the IC50 is the concentration needed to halve the response being measured. A high value points to weaker potency in that assay.
